Reference: patent US11559565B2, “Methods for treating inflammatory disorders and traumatic brain injury using stabilized non-hematopoietic EPO short peptides” (United States Government as Represented By The Department …, priority 2005, dated 2023)
No end group written: not given here.

Key:
[1] = design: species or system SJL/J mice; details: mouse, in vivo
Description: An EAE model was established in strain SJL/J mice that is characterized by a relapsing-remitting clinical course. Briefly, mice were immunized subcutaneously at the tail base with 100 μl (200 μg) myelin oligodendrocyte glycoprotein (MOG) peptide dissolved in distilled water and emulsified with an equal volume of complete Freund's adjuvant supplemented with 4 mg/ml Mycobacterium tuberculosis H37Ra. Immediately after immunization, animals received an intravenous injection of 200 ng Bordetella pertussis toxin in 200 μl PBS. Animals were weighed daily and assessed for clinical signs of EAE by two independent observers.
Five mice per group were given either daily i.v. full length EPO (50-500 U/kg) or short EPO-peptide JM-4 peptide (250-500 μg/kg; 5-10 μg/mouse) in PBS, or PBS alone for 9 to 14 days. Blood was collected for 5 weeks to document changes in hematocrit.
Hematocrit can be determined by centrifuging heparinized blood in a capillary tube (microhematocrit tube) at 10,000 rpm for 5 minutes. This separates the blood into layers. The volume of packed red blood cells, divided by the total volume of the blood sample gives the packed cell volume (PCV). Because a tube is used, this can be calculated by measuring the lengths of the layers.

[2] = Deaths, clinical morbidity, blood chemistries and signs of toxicity in treated EAE mice; assay type: in vivo, SJL/J mice
Description: An EAE model was established in strain SJL/J mice that is characterized by a relapsing-remitting clinical course. […] Immediately after immunization, animals received an intravenous injection of 200 ng Bordetella pertussis toxin in 200 μl PBS. Animals were weighed daily and assessed for clinical signs of EAE by two independent observers.
[…] Blood was collected for 5 weeks to document changes in hematocrit.

[3] = system: brain injured mice (controlled cortical impact); assay: Controlled cortical impact traumatic brain injury, TUNEL positive cells in the injured hemisphere; details: for number of dying (TUNEL positive) cells: i.p. within 30 minutes of trauma for 3 days, both 3 and 8 days post injury, p<0.001 and p<0.01
Description: C57BL/6 mice were anesthetized with isofurane/oxygen inhalation and placed in a stereotaxic frame. The head position was established in the horizontal plane and a craniotomy (4 mm) was produced lateral to the sagittal suture between lambda and bregma, with the dura mater left intact over the cortex. A cortical contusion injury was produced utilizing a pneumatically driven 2.5 mm diameter rod tip at 3.5 m/s to a depth of 1 mm with a dwell time of 400 ms (Precision System Instruments TBI-0300 Impactor, Lexington, Ky.). After injury, a 5 mm disk constructed from dental cement was placed over the craniotomy site and adhered to the skull using cyanocrylate. During the early post-operative phase, animal temperature was maintained by placing the animals on heating pads.
Mice in the whole molecule EPO group received 5000 U/kg body weight rhEPO (Epoetin alpha, Amgen, Thousand Oaks, Calif.) intraperitoneally (i.p.). […] Mice in the PBS and sham-operated groups received 200 μl filtered sterile PBS.
Mice were sacrificed at 3 days or 8 days post-injury; brains were collected and immediately frozen on dry ice. The frozen brains were serially sectioned in coronal cuts onto 15 slides with 12 sections (16 μm thickness) per slide extending from the anterior to the posterior edge of the lesion. Sections were placed such that each individual slide contained a representative sampling of the entire lesion within the injured hemisphere.
Cell death in the mouse brains was detected using a modification of the Apoptag® (Millipore, Billerica, Mass.) in situ TUNEL method. Cryosections (16 μm thickness) were mounted and fixed in 100% acetone for 10 minutes. The slides were rehydrated and post-fixed in 2:1 ethanol:acetic acid for 11 minutes at −20° C., and then washed thoroughly in Stop/Wash Buffer (Apoptag®). Slides were incubated with equilibration buffer for 10 minutes immediately followed by working strength TdT enzyme (33 parts enzyme/77 parts buffer (Apoptag®)) for 60 minutes at 37° C. The TUNEL reaction was detected with Cy3 anti-digox (1:200; Jackson Immunoresearch, West Grove, Pa.).
Micrographs of the processed slides were acquired with a fluorescent Olympus BX60 microscope fitted with a Retiga 2000R digital camera at 10 times magnification. The total number of TUNEL positive cells in lesioned hemispheres and the total area of the brain containing the TUNEL positive cells were quantified using digital imaging software (I.P. lab 4.0, Becton Dickinson, Franklin Lakes, N.J.).
The animals were sacrificed after 3 or 8 days and the injured forebrain lesions were serially sectioned. Cell death within the damaged hemisphere was quantified by DNA fragmentation (TUNEL stain) to determine the degree of neuroprotection. Serial sections containing the entire lesion site and the TUNEL labeled peri-lesional zone were photographed, digitized, and the images used to quantify the number of positive cells by IP lab 4.0 Software (Becton Dickinson, Franklin Lakes, N.J.).
Mice were sacrificed 3 days post-TBI. The effect of treatment delay was determined by TUNEL staining.

EAE in SJL/J mice = assay: PLP antigen-induced relapsing-remitting EAE, clinical score; assay type: in vivo
Description: JM-4 peptide rapidly reduces neurologic deficit in EAE mice. […] Mice first were immunized with a suboptimal dose of PLP antigen (100 μg) on day 0; the mice developed clinical deficits, and were allowed to recover for about 21 days. Recovered EAE mice received 7 days of treatment with either cyclic JM-4 peptide (i.v. 250 ng/kg) or PBS (i.v.) before receiving a second PLP antigen immunization (100 μg).

[4] = system: acutely symptomatic EAE animals; assay: JM-4 peptide therapy on acutely symptomatic EAE animals; assay type: in vivo; details: 4 days of therapy
Excerpt: The effect of JM-4 peptide therapy on acutely symptomatic EAE animals was studied. Five sham-treated animals with EAE were compared to five EAE animals that had received 4 days of therapy with JM-4 peptide. The sham-treated animals were barely capable of moving their heads with marked four limb weakness. […] The JM-4 peptide treated animals have some neurologic residua (they have a waddling gait and their tails drag).

[5] = system: PLP antigen-induced symptomatic SJL/J EAE mice; assay: Spinal cord pathology in EAE mice (mononuclear infiltration, SMI-32 staining); assay type: in vivo; details: treated 7 days
Description: Groups of PLP antigen-induced symptomatic SJL/J EAE mice were treated with either JM-4 peptide or PBS for 7 days, and spinal cords were removed for pathologic examination.
Monoclonal antibody (SMI-32) (Sternberger Monoclonal Antibodies, Lutherville, Md.) that reacts with a nonphosphorylated epitope in neurofilament H-was used. The reaction is masked when the epitope is phosphorylated. Briefly, frozen tissue sections (16 μm) were acetone-fixed for 10 minutes and air dried. Antigen retrieval was performed using 1× Target Unmasking Fluid (TUF) (Zymed Laboratories, San Francisco, Calif.). Slides were reacted with TUF at 95° C. for 10 minutes, then at room temperature (25° C.) for 10 minutes. SMI-32 primary antibody was diluted (1:5000) with 2% normal horse serum in PBS (1×) and reacted overnight at 4° C. Additional slides were processed without the primary antibody to provide an appropriate control. Slides then were washed twice with PBS (1×) for 3 minutes each wash, and reacted with a biotinylated anti-mouse antibody (Vector Laboratories, Burlingame, Calif.). The slides were washed twice (PBS (1×), 3 minutes each wash), reacted with an avidin-biotin/horseradish peroxidase complex (Vector Laboratories, Burlingame, Calif.) for 30 minutes at room temperature, and washed (PBS (1×), 3 minutes). Slides were visualized with Tyramide signal amplification/Cyanine-3 dye (Perkin Elmer, Waltham, Mass.) at 1:200 dilution in amplification buffer (Perkin Elmer, Waltham, Mass.). Slides then were mounted in glycerol and examined by fluorescence microscopy.
Acute axonal injury in spinal long tract was assessed by SMI-32 staining for nonphosphorylated neurofilaments (FIG. 3, black DAB staining, bottom 2 panels).

[6] = system: brain injured mice (controlled cortical impact); assay: Summed area containing TUNEL positive cells within the lesioned hemisphere; assay type: in vivo, C57BL/6 mice; details: 3 days post-injury
Description: The effect of JM-4 peptide therapy on the summed area containing TUNEL positive cells within the lesioned hemisphere was evaluated 3 days post-injury. In this experiment, the same TUNEL stained sections (from Example 5) used to quantify the number of TUNEL positive cells were used to quantify the total area containing dying cells within the injured hemisphere.

TBI mice = assay: Simple Neuroassessment of Asymmetric Impairment (SNAP) after traumatic brain injury; assay type: in vivo, C57BL/6 mice; details: 10 days post-injury, versus vehicle treated TBI mice
Description: SNAP is a scoring system, based on six tests, developed and validated to assess neurological deficits induced in a mouse model of traumatic brain injury. Mice are evaluated to assess neurological parameters for: (1) interaction with a handler, (2) cage grasp, (3) visual placing, (4) pacing/circling, (5) posture and head tilt, and (6) the baton test. The results from each of the six tests are summed to derive the overall SNAP score. SNAP scores are high when asymmetric deficits are apparent; thus, a neurologically intact animal would be expected to have a SNAP score of “0.” SNAP allows for ambiguous results (for example, a score of ‘1’) and test scores of 2 to 5 are assigned when asymmetric deficits were apparent. In addition, a range is allowed when the deficit appears to span more than one definition for a test score; ranges then are averaged to derive the test score (for example, a range of 2 to 3 would be scored as 2.5 for that test). […]
An uninjured mouse would ambulate in a random pattern (for example, turning either to the right or turning to the left when facing a corner). An injured mouse was expected to ambulate in a consistent pattern (for example, consistently turn toward one direction, and not be readily coaxed in the opposite direction). […]
The effect of JM-4 peptide therapy on neurologic deficits (SNAP scores) was evaluated 10 days post-injury by blinded observers.

## Epoetin Alfa [rhEPO, reference compound]
[1]
  effect on hematocrit: increased markedly within one week
[2]; SJL/J mice treated with rhEPO
  clinical signs of toxicity: developed red-blue ears and tails within 5 to 6 days, typically leading to death
[3]
  number of dying (TUNEL positive) cells: dramatically reduced

## GCAEHCSLNENITVPDTKV (also: cyclic, mode of cyclisation not given here) [JM-4]
[1]
  effect on hematocrit: no effect on hematocrit
  increase in red blood cell mass: not associated with any increase in red blood cell mass
[2]; PLP EAE mice, JM-4 therapy i.v. 250 ng/kg
  signs of toxicity: nor were any signs of toxicity observed
[2]; small group treated for 7 days
  blood chemistries: remained unaltered
EAE in SJL/J mice; after 7 days i.v. 250 ng/kg, versus sham, p<0.05
  clinical signs in response to the second PLP immunization: less severe clinical signs at a later time
EAE in SJL/J mice; after discontinuation of all therapy for 30 days, p<0.001
  disease severity in long term follow-up: much milder disease
EAE in SJL/J mice; recovered EAE mice, 7 days i.v. 250 ng/kg, p<0.05
  clinical score versus sham treated (saline): Marked clinical improvement
EAE in SJL/J mice; versus PBS sham treated animals
  clinical score after a second seven-day treatment course: Clinical improvement again was observed
[4]
  neurologic state versus sham-treated animals: mobile and markedly improved
[5]; versus PBS
  vacuolar changes: fewer vacuolar changes
  white matter mononuclear infiltration: marked reduction
[5]; versus sham
  injured SMI-32 positive axons: far fewer injured axons
[6]
  lesional area containing TUNEL positive cells: much reduced
[6]; versus PBS, p<0.001
  reduction of lesioned volume (area): greater than 50%
TBI mice
  neurologic deficits (composite SNAP score): significant improvement in neurologic deficits
[3]; 0.1 μg i.p. daily for 72 hours
  cell death judged by TUNEL positivity: failed to significantly block cell death
[3]; 1 μg i.p. daily for 72 hours
  cell death judged by TUNEL positivity: failed to significantly block cell death
[3]; 10 μg i.p., 3 days, FIG. 5A
  reduction of neural cell death (TUNEL): ~70%
[3]; 10 μg i.p., first treatment 15 minutes post-injury
  TUNEL positive dying cells versus sham: statistically significant neuroprotective effect
[3]; 10 μg i.p., first treatment 3 hours post-injury
  TUNEL positive dying cells versus sham: equally effective
[3]; 10 μg i.p., first treatment 9 hours post-injury
  TUNEL positive dying cells versus sham: equally effective
[3]; 10 μg i.p., treatment delayed 24 hours
  TUNEL positive dying cells versus sham: Very little treatment effect
[3]; 10 micrograms i.p. daily for 72 hours, p=0.005
  cell death judged by TUNEL positivity: significant protected against cell death
[3]; 50 micrograms i.p. daily for 72 hours, p=0.005
  cell death judged by TUNEL positivity: significant protected against cell death
[3]; 100 micrograms i.p. daily for 72 hours, p=0.005
  cell death judged by TUNEL positivity: significant protected against cell death
[3]; 8 days, FIG. 5B
  neuroprotection by TUNEL: neuroprotective
[3]; JM-4 10 μg i.p. versus EPO 5000 U/kg i.p.
  blocking cell death compared with whole molecule EPO: at least as effective as using whole molecule EPO
[3]; PO by gavage, 100 micrograms daily, 3 hours after injury, p=0.01
  cell death (TUNEL-positive cells): effective blocking cell death
[3]; following severe head trauma
  therapeutic window: at least 9 hours
[3]
  number of dying (TUNEL positive) cells: dramatically reduced
